According to ChEMBL document CHEMBL1201862, “PubChem BioAssay data set” (2004):
“And” between values parts separate entries of the source, which are not always exact repeats. Identical values can stand only once. The source made the active and inactive calls.

Tests used:
Kallikrein-7 = Kallikrein-7 (Homo sapiens, UniProt P49862); assay: Fluorescence Intensity-based biochemical primary high throughput dose response assay to identify activators of kallikrein-7 (K7) zymogen.
[1] = test system: Streptococcus sp. 'group A'; assay: growth inhibition of control SK(-) GAS strain, dose response, counter-screen for streptokinase expression inhibitor project, luminescence, kanamycin, BacTiterGlo, confirmation (AID 1900); format: functional, organism-based
Streptokinase A = target: T1, Streptokinase A (Streptococcus pyogenes serotype M1, UniProt P10520); assay: S. pyogenes streptokinase expression inhibitors, potency, dose response, plasminogen activation absorbance, OD405 (AID 1914); format: functional, Streptococcus pyogenes M1 GAS;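 note: secreted streptokinase activity via plasminogen activation per viability signal from cell pellet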
T1 sequence (P10520 whole entry): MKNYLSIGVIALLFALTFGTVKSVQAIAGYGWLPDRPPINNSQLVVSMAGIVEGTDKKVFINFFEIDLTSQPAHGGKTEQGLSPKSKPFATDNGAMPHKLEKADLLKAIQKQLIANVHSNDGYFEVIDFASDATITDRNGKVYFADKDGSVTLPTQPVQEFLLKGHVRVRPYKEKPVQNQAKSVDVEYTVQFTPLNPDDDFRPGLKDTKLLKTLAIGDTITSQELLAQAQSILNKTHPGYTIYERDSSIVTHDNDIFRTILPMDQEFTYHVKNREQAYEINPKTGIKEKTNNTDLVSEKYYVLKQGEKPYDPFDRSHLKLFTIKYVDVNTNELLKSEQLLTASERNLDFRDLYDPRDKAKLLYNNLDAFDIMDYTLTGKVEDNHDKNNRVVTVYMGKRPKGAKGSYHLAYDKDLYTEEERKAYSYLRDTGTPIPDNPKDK

[2] = inhibitors of intracellular T. cruzi replication, confirmation, NIH3T3 host cells, beta-gal luminescence (AID 2044); format: functional, cell-based;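 note: intracellular parasites grown in NIH/3T3 mouse fibroblasts as host cells; luminescent beta-galactosidase reporter signal from transgenic T. cruzi replicating inside host cells; inhibitors lower the luminescence signal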
Streptococcus = assay: Group A Streptococcus viability loss, dose response, counter-screen for streptokinase expression inhibitor project, luminescence, BacTiterGlo (AID 1915); format: functional, organism-based;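 note: potency for reduction of bacterial viability or growth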
[3] = cytotoxicity toward NIH3T3 fibroblasts, dose response, counter-screen, cell-based, ATP luminescence, mouse fibroblasts (AID 2010); format: functional;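 note: cells exposed to compound for about 90 hours before reading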
[4] = target: Disintegrin and metalloproteinase domain-containing protein 17 (Homo sapiens, UniProt P78536); assay: ADAM17 protease inhibitors, dose response, counter-screen for ADAM10 exosite inhibitor project, biochemical, quenched FRET substrate (AID 743253)
Chain of Disintegrin and metalloproteinase domain-containing protein 17 (P78536 whole entry, the tested form may be a part): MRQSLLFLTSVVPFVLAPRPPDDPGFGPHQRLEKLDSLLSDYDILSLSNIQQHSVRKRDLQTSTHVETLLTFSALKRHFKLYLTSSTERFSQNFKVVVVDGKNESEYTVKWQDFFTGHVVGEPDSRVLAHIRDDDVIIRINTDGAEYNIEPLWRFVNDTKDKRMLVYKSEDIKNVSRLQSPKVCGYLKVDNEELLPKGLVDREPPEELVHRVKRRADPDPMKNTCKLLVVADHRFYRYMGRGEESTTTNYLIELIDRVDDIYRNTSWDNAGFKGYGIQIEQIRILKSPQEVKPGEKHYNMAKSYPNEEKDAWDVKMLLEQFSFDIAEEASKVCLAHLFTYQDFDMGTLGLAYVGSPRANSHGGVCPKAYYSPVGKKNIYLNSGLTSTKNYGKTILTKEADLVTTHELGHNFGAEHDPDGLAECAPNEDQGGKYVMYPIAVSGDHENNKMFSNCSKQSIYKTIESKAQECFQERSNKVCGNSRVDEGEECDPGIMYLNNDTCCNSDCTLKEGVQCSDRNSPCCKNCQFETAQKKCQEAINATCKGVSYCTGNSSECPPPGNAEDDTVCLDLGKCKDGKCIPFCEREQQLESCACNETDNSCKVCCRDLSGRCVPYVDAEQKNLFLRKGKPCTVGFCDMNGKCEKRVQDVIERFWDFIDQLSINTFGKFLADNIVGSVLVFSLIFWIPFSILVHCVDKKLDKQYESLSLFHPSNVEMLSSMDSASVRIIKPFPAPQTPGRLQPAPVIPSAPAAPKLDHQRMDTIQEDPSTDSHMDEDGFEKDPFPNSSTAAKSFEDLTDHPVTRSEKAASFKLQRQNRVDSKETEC

Protein Tat = target: T2, Protein Tat (Human immunodeficiency virus type 1 group M subtype B (isolate HXB2)(HIV-1), UniProt P04608); format: functional;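 note: tat binding to TAR RNA read out by fluorescence polarization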
T2 sequence (P04608 whole entry): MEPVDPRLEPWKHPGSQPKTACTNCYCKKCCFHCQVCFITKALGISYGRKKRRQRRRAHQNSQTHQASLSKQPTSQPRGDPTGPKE

[5] = target: Glutathione-S-transferase (Schistosoma japonicum, UniProt Q26513); assay: biotin-GST/anti-GST TR-FRET signal inhibitors, dose response, artefact control for Vif-APOBEC3G degradation inhibitor project, biochemical (AID 1117362); format: functional
Chain of Glutathione-S-transferase (Q26513 whole entry): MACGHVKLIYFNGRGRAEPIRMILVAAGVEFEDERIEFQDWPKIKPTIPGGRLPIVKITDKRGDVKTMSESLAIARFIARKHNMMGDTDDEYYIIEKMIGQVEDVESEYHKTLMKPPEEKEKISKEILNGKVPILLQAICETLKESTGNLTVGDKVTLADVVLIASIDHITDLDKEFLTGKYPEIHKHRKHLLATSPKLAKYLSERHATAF

Large T antigen = Large T antigen (Simian virus 40, UniProt P03070); format: functional, Betapolyomavirus macacae;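 note: Confirmatory-stage PubChem screen for compounds that inhibit SV40 T antigen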
Chain of Large T antigen (P03070 whole entry): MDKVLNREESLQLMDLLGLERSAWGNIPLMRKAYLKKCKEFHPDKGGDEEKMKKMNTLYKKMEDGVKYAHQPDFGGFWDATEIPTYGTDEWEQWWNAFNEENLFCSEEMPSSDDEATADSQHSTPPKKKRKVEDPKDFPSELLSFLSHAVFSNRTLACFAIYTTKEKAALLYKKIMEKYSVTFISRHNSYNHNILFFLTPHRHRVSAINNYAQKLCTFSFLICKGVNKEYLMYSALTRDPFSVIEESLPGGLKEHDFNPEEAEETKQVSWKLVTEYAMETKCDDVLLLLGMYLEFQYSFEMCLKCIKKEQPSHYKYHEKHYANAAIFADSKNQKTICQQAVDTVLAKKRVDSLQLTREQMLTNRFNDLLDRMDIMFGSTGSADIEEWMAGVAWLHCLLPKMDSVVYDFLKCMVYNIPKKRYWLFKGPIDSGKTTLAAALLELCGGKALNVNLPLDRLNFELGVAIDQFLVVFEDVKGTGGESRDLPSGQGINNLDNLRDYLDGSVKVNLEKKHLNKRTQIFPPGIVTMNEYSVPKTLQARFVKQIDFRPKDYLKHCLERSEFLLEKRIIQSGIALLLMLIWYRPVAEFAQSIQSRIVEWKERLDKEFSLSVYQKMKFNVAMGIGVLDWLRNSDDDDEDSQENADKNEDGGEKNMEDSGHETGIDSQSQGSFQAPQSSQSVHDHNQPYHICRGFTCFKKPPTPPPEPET

[6] = A375 melanoma cell cytotoxicity, dose response, counter-screen for MITF inhibitor project, CellTiter-Glo luminescence, dry powder, set 6 (AID 624488); format: functional, cell-based; details: A-375
[7] = target: T3, Microphthalmia-associated transcription factor (Homo sapiens, UniProt O75030); assay: TRPM1 promoter luciferase signal decrease, dose response, MITF inhibitor project, cell-based, SK-MEL-5, cherry-picked, set 3 (AID 493073); format: functional
T3 sequence (O75030 whole entry): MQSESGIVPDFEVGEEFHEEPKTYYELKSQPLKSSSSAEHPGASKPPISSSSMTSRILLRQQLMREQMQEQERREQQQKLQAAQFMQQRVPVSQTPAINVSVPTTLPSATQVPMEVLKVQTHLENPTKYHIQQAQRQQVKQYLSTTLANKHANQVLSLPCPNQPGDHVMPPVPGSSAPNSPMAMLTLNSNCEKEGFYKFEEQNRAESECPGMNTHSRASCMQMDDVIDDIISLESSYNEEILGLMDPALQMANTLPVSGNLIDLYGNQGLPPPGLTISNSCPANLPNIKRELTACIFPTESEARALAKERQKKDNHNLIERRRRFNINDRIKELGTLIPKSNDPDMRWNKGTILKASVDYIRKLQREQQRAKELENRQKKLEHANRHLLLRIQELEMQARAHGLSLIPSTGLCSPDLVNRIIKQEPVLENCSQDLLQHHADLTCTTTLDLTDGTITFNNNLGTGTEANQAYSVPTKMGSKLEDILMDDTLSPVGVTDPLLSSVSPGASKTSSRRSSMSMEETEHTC

[8] = A375 melanoma cell viability loss, dose response, counter-screen for MITF inhibitor project, CellTiter-Glo luminescence, dry powder, set 4 (AID 624364); format: functional, cell-based; details: A-375;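 note: A375 melanoma cells are MITF independent so this is a counter screen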
[9] = MITF Measured in Cell-Based System Using Plate Reader - 2084-01_Inhibitor_Dose_DryPowder_Activity_Set7.; format: functional
[10] = A375 melanoma cell viability loss, dose response, counter-screen for MITF modulator project, CellTiter-Glo luminescence, dry powder, set 9 (AID 651591); format: functional, cell-based; details: A-375
[11] = SK-MEL-5 parental line viability, dose response, MITF inhibitor project, cell-based, CellTiter-Glo, dry powder, set 6 (AID 624429); format: functional
[12] = MITF Measured in Cell-Based System Using Plate Reader - 2084-01_Inhibitor_Dose_DryPowder_Activity_Set6.; format: functional
[13] = MITF Orthogonal Assay: MALME3 CTG Assay Measured in Cell-Based System Using Plate Reader - 2084-04_Inhibitor_Dose_DryPowder_Activity_Set6.; format: functional; details: MALME-3
[14] = A375 melanoma cell cytotoxicity, dose response, counter-screen for MITF inhibitor project, CellTiter-Glo luminescence, dry powder, set 7 (AID 624490); format: functional, cell-based; details: A-375
INS1 = assay: beta cell apoptosis inhibitors, cytokine rescue, dose response, luminescence, retest (AID 449756); format: functional, cell-based; details: Rattus norvegicus;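 note: cell death triggered by IL-1 beta plus TNF-alpha plus IFN-gamma mixture; protective hits raise ATP signal compared with cytokine alone wells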
[15] = MITF Orthogonal Assay: SK-MEL-5 CTG Assay Measured in Cell-Based System Using Plate Reader - 2084-02_Inhibitor_Dose_DryPowder_Activity_Set5.; format: functional
[16] = SK-MEL-5 parental cell viability reduction, dose response, orthogonal assay for MITF inhibitor project, CellTiter-Glo luminescence, dry powder, set 8 (AID 651586); format: functional, cell-based
Nonstructural protein 1 = Nonstructural protein 1 (Influenza A virus, UniProt Q194T2); format: functional, Influenza A virus (A/California/07/2009(H1N1))
Chain of Nonstructural protein 1 (Q194T2 whole entry): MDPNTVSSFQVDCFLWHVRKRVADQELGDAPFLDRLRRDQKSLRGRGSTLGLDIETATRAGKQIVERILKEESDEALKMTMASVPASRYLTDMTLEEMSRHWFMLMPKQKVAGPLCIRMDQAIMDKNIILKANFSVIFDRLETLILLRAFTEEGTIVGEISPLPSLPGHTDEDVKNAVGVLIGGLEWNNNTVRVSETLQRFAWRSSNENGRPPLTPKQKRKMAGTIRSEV

[17] = MALME3 melanoma cell viability reduction, dose response, orthogonal assay for MITF inhibitor project, CellTiter-Glo luminescence, dry powder, set 5 (AID 651584); format: functional, cell-based; details: MALME-3
[18] = TRPM1 promoter luciferase reporter signal decrease, dose response, MITF inhibitor project, cell-based, SK-MEL-5, dry powder, set 9 (AID 651588); format: functional
[19] = cytotoxicity in primary human melanocytes, dose response, cytotoxicity control, cell-based, plate reader, dry powder (AID 651920); format: functional
[20] = CEM21 cell cytotoxicity, dose response, cytotoxicity control, plate reader, dry powder (AID 687026); format: functional, cell-based
[21] = target: NAD-dependent protein deacylase sirtuin-5, mitochondrial (Homo sapiens, UniProt Q9NXA8); assay: SIRT5 desuccinylase inhibitors, dose response, biochemical, fluorescence imaging, cherry-pick, set 5 (AID 720591);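 note: desuccinylation of succinyl peptide AMC substrate read as fluorescence after trypsin release; potency of inhibitors that lower fluorescence and may act on trypsin instead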
Chain of NAD-dependent protein deacylase sirtuin-5, mitochondrial (Q9NXA8 whole entry): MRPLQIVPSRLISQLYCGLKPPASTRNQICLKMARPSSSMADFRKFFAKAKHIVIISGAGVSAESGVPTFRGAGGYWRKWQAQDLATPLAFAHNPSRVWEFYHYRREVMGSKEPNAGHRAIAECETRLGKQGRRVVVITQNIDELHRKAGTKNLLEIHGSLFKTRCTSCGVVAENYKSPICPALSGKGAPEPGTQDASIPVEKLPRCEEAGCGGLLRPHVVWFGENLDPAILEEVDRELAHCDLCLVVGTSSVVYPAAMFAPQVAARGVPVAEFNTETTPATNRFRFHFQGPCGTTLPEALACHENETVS

Paired box protein Pax-8 = Paired box protein Pax-8 (Homo sapiens, UniProt Q06710); assay: inhibitors of PAX8-driven TPO luciferase reporter, dose response, RMG-I cells, cherry-pick (AID 687027); format: functional, cell-based;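 note: luciferase reporter driven by Pax8 target thyroperoxidase promoter measured by SteadyGlo luminescence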
Chain of Paired box protein Pax-8 (Q06710 whole entry): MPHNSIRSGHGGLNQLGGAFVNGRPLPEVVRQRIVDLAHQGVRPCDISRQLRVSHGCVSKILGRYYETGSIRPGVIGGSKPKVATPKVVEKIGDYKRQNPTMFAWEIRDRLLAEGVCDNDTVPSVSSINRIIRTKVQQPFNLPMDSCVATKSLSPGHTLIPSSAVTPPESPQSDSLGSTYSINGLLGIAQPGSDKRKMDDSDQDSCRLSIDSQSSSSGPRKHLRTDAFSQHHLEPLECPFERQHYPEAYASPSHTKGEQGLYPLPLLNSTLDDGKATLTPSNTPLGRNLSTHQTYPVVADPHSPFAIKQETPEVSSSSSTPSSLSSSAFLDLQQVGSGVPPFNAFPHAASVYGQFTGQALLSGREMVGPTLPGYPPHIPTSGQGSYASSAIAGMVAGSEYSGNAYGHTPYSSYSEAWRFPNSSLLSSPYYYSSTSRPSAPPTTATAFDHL

[22] = cytotoxicity in OVCAR8 ovarian cancer cells, dose response, PAX8 project, cell-based, plate reader, dry powder samples (AID 743197); format: functional; details: OVCAR-8
[23] = NIH:OVCAR-3 ovarian cancer cell cytotoxicity, dose response, PAX8 inhibitor project, plate reader, dry powder samples (AID 743044); format: functional, cell-based
[24] = A549 cell cytotoxicity, dose response, cytotoxicity control, 24 h, CellTiter-Glo luminescence, cherry-picks (AID 1053115); format: functional, cell-based; details: A549, 24 h
[25] = A2780 ovarian cancer cell cytotoxicity, dose response, cytotoxicity control, plate reader, dry powder samples (AID 743046); format: functional, cell-based

Chain of Kallikrein-7 (P49862 whole entry): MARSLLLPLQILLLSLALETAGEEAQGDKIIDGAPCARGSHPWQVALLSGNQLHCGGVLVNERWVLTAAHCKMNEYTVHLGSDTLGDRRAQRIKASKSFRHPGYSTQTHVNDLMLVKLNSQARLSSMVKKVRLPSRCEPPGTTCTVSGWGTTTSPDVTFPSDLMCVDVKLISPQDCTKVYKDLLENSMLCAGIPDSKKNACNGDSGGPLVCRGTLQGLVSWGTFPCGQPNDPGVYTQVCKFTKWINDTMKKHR

SMILES: Cc1oc2c(CN3CCCCC3)c(O)ccc2c(=O)c1-c1ccc(Br)cc1
- EC50 (Kallikrein-7): 9.73 µM (active)

SMILES: COc1ccc(C(Nc2cc(C)ccn2)c2ccc3ccc(C)nc3c2O)cc1 (stereo not drawn)
- EC50 [1]: 14.3 µM (active)
- EC50 (Streptokinase A): > 150 µM (not active)
- EC50 [2]: 2.15 µM (active)
- EC50 (Streptococcus): 54.9 µM (active)
- EC50 [3]: 24.7 µM (active)
- IC50 [4]: > 69.5 µM (inactive)

SMILES: CC(=O)N1CCN(c2ccc(NCc3ccc(C)s3)cc2)CC1
- IC50 (Protein Tat): > 100 µM (active)
- IC50 [5]: 29.7 µM (active)
- IC50 (Large T antigen): 3.48 µM (active)

SMILES: COC1=C(Nc2ccccc2)C(=O)c2ccccc2C1=O
- AC50 [6]: 43.4 µM (active)
- AC50 [7]: 4.53 µM (active)
- AC50 [8]: > 70 µM (inactive)
- AC50 [9]: 7.24 µM (active)
- AC50 [10]: > 70 µM (inactive)
- AC50 [11]: 3.54 µM (active)
- AC50 [12]: 5.17 µM (active)
- AC50 [13]: 12.5 µM (active)
- AC50 [14]: 41.5 µM (active)
- AC50 (INS1): 5.64 µM (active)
- AC50 [15]: 3.1 µM (active)
- AC50 [16]: 6.45 µM (active)
- IC50 (Nonstructural protein 1): 12 µM (active)
- AC50 [17]: 12.5 µM (active)
- AC50 [18]: 13.9 µM (active)
- AC50 [19]: 41.9 µM (active)

SMILES: Nc1nonc1C(=O)NCCNCc1c(OCc2ccccc2F)ccc2ccccc12
- AC50 [20]: > 70 µM (inactive) and 60.8 µM (active)

SMILES: CCOC(=O)C1=CCN(S(=O)(=O)c2ccc(C)cc2)C1c1cccc(Br)c1 (stereo not drawn)
- AC50 [21]: > 30 µM (inactive)

SMILES: COc1ccccc1-c1ccc2c(c1)[C@H]1[C@H](CCN1C(=O)C1CCCCC1)[C@@H](CO)N2
- AC50 (Paired box protein Pax-8): 9.8 µM (active)
- AC50 [22]: 30.4 µM (active)
- AC50 [23]: 18.7 µM (active)
- AC50 [24]: 42.1 µM (active)
- AC50 [25]: 5.38 µM (active)
